From PubChem BioAssay (NCI)
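Following 48 hours of exposure in 96-well plates, responses at five concentrations were used to interpolate endpoints linearly. Definition used: TGI = concentration required for complete inhibition of growth.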

What was measured:
Assay in all cases: growth of human tumour cells (NCI), 48 h
[1] = system: A549 NSCLC
[2] = system: ACHN renal
[3] = system: BT-549 breast
[4] = system: CCRF-CEM leukemia
[5] = system: HCC-2998 colon
[6] = system: HCT-116 colon
[7] = system: MOLT-4 leukemia
[8] = system: OVCAR-3 ovarian
[9] = system: OVCAR-5 ovarian
[10] = system: OVCAR-8 ovarian
[11] = system: PC-3 prostate
[12] = system: SF-295 CNS
[13] = system: SF-539 CNS
[14] = system: T-47D breast
[15] = system: U251 CNS

## CN1CCN(c2ccc3[nH]c(C4=C(O)c5nc(CO)n(C)c5C(=O)C4=O)nc3n2)CC1
[1]
  TGI: > 100 µM
[2]
  TGI: > 100 µM
[3]
  TGI: > 100 µM
[4]
  TGI: > 100 µM
[5]
  TGI: > 100 µM
[6]
  TGI: > 100 µM
[7]
  TGI: > 100 µM
[8]
  TGI: > 100 µM
[9]
  TGI: > 100 µM
[10]
  TGI: > 100 µM
[11]
  TGI: > 100 µM
[12]
  TGI: > 100 µM
[13]
  TGI: > 100 µM
[14]
  TGI: > 100 µM
[15]
  TGI: > 100 µM

## CCOC(=O)c1nc2cc(C(F)(F)F)ccc2nc1Nc1ccc(Cl)c(Cl)c1
[1]
  TGI: > 100 µM
[2]
  TGI: > 100 µM
[3]
  TGI: > 100 µM
[4]
  TGI: > 100 µM
[5]
  TGI: > 100 µM
[6]
  TGI: > 100 µM
[7]
  TGI: > 100 µM
[8]
  TGI: > 100 µM
[9]
  TGI: > 100 µM
[10]
  TGI: > 100 µM
[11]
  TGI: > 100 µM
[12]
  TGI: > 100 µM
[13]
  TGI: > 100 µM
[14]
  TGI: > 100 µM
[15]
  TGI: > 100 µM

## CC(Cc1ccc(O)c(O)c1)C(C)Cc1ccc(O)c(O)c1 (stereo not given)
[1]
  TGI: > 88.4 µM
[2]
  TGI: 33.5 µM
[3]
  TGI: 26.8 µM
[4]
  TGI: 19.3 µM
[5]
  TGI: 38.9 µM
[6]
  TGI: 34.2 µM
[7]
  TGI: > 62.5 µM
[8]
  TGI: 27.4 µM
[9]
  TGI: 50.7 µM
[10]
  TGI: 33.6 µM
[11]
  TGI: > 79.6 µM
[12]
  TGI: 43 µM
[13]
  TGI: 33.9 µM
[14]
  TGI: 41.2 µM
[15]
  TGI: 38.9 µM

## CN1C[C@@H]2CCCN2P1Oc1cccc2cccnc12 (stereo not given in full)
[1]
  TGI: > 100 µM
[2]
  TGI: > 100 µM
[3]
  TGI: > 100 µM
[4]
  TGI: 19.3 µM
[5]
  TGI: > 100 µM
[6]
  TGI: 89 µM
[7]
  TGI: 58.1 µM
[8]
  TGI: 90.2 µM
[9]
  TGI: > 100 µM
[10]
  TGI: > 100 µM
[11]
  TGI: > 100 µM
[12]
  TGI: > 100 µM
[13]
  TGI: > 100 µM
[14]
  TGI: > 100 µM
[15]
  TGI: > 100 µM

## N#Cc1c(NC(=S)NCc2ccccc2)sc2c1CCN(N1CCc3c(sc(NC(=S)NCc4ccccc4)c3C#N)C1)C2
[1]
  TGI: > 100 µM
[2]
  TGI: > 100 µM
[3]
  TGI: > 100 µM
[4]
  TGI: > 100 µM
[5]
  TGI: > 100 µM
[6]
  TGI: > 100 µM
[7]
  TGI: > 100 µM
[8]
  TGI: > 100 µM
[9]
  TGI: > 100 µM
[10]
  TGI: > 100 µM
[11]
  TGI: > 100 µM
[12]
  TGI: > 100 µM
[13]
  TGI: > 100 µM
[14]
  TGI: > 100 µM
[15]
  TGI: > 100 µM

## O=C(O)c1ccccc1/C=N\NC1=NCCN1
[1]
  TGI: > 100 µM
[2]
  TGI: > 100 µM
[3]
  TGI: > 100 µM
[4]
  TGI: > 100 µM
[5]
  TGI: > 100 µM
[6]
  TGI: > 100 µM
[7]
  TGI: > 100 µM
[8]
  TGI: > 100 µM
[9]
  TGI: > 100 µM
[10]
  TGI: > 100 µM
[11]
  TGI: > 100 µM
[12]
  TGI: > 100 µM
[13]
  TGI: > 100 µM
[14]
  TGI: > 100 µM
[15]
  TGI: > 100 µM

## Cn1c(=O)n(CC(Br)CBr)c(=O)n(CC(Br)CBr)c1=O (stereo not given)
[1]
  TGI: > 100 µM
[2]
  TGI: > 100 µM
[3]
  TGI: > 100 µM
[4]
  TGI: 66.9 µM
[5]
  TGI: 81.1 µM
[6]
  TGI: 79.3 µM
[7]
  TGI: 87.1 µM
[8]
  TGI: > 100 µM
[9]
  TGI: > 100 µM
[10]
  TGI: > 100 µM
[11]
  TGI: > 100 µM
[12]
  TGI: > 100 µM
[13]
  TGI: 61.1 µM
[14]
  TGI: > 100 µM
[15]
  TGI: > 100 µM

## Clc1nc2c(-c3cccs3)ncnc2n1Cc1ccccc1
[1]
  TGI: > 100 µM
[2]
  TGI: 4.36 µM
[3]
  TGI: > 81.8 µM
[4]
  TGI: > 100 µM
[5]
  TGI: 9.84 µM
[6]
  TGI: > 100 µM
[7]
  TGI: > 100 µM
[8]
  TGI: 49.8 µM
[9]
  TGI: > 100 µM
[10]
  TGI: > 100 µM
[11]
  TGI: > 76.4 µM
[12]
  TGI: > 100 µM
[13]
  TGI: > 100 µM
[14]
  TGI: > 91.5 µM
[15]
  TGI: > 100 µM

## Fc1ccc(C(OCCN2CCC3CCC(C2)N3Cc2cc3ccccc3[nH]2)c2ccc(F)cc2)cc1 (stereo not given)
[1]
  TGI: 4.26 µM
[2]
  TGI: 4.07 µM
[3]
  TGI: 5.08 µM
[4]
  TGI: 4.69 µM
[5]
  TGI: 3.06 µM
[6]
  TGI: 2.6 µM
[7]
  TGI: 4.03 µM
[8]
  TGI: 3.39 µM
[9]
  TGI: 4.18 µM
[10]
  TGI: 3.1 µM
[11]
  TGI: 3.25 µM
[12]
  TGI: 3.78 µM
[13]
  TGI: 3.01 µM
[14]
  TGI: 3.18 µM
[15]
  TGI: 3.42 µM

## CCC(=O)NCCc1c[nH]c2ccc(OC)cc12
[1]
  TGI: > 100 µM
[2]
  TGI: > 100 µM
[3]
  TGI: > 100 µM
[4]
  TGI: > 100 µM
[5]
  TGI: > 100 µM
[6]
  TGI: > 100 µM
[7]
  TGI: > 100 µM
[8]
  TGI: > 100 µM
[9]
  TGI: > 100 µM
[10]
  TGI: > 100 µM
[11]
  TGI: > 100 µM
[12]
  TGI: > 100 µM
[13]
  TGI: > 100 µM
[14]
  TGI: > 100 µM
[15]
  TGI: > 100 µM

## COC(=O)C1=C(C)NC(C)=C([N+](=O)[O-])C1c1cccc(NO)c1 (stereo not given)
[1]
  TGI: > 89.6 µM
[2]
  TGI: > 44.9 µM
[3]
  TGI: 16.4 µM
[4]
  TGI: > 22.9 µM
[5]
  TGI: 16.8 µM
[6]
  TGI: 10.5 µM
[7]
  TGI: > 26 µM
[8]
  TGI: 19.5 µM
[9]
  TGI: > 100 µM
[10]
  TGI: 37.5 µM
[11]
  TGI: 26.1 µM
[12]
  TGI: 23.1 µM
[13]
  TGI: 37 µM
[14]
  TGI: > 52.4 µM
[15]
  TGI: > 100 µM
